Measured values published in PMC8776995 (Frontiers in Chemistry, 2022).
“And” between values parts separate entries of the source, which are not always exact repeats. Equal entries are not always repeated. Blank lines part the entries; values can stand above or below the molecule they belong to.

Key:
[1] = target: wild-type EGFR (Homo sapiens, UniProt P00533); test: EGFR kinase assay (ELISA); conditions: for IC50: IC50 (μM) EGFR, ELISA, 3 μmol/L ATP; for A450: raw ELISA absorbance
[2] = tested on: H460 cells; test: CCK-8 antiproliferation assay, H460; conditions: for Inhibitory efficacy: H460 cells; for IC50: NCI-H460, 48 h, read-out: IC50 (μM) H460, CCK-8, 48 h, average ± SD of three independent experiments
Protocol: The compounds were dissolved in DMSO to make a 20 μM stock solution and diluted to the concentration of working solutions with complete growth medium before administration.
Cells were seeded in 96-well plates: 3,000–5,000 cells/well in 100 ul. One day after seeding, the test compounds at concentration between 1.0 and 16.0 μ M or 0.1% DMSO (as control) were added to cells in triplicate. 48 h later, CCK-8 was added and incubated the plate for 1–4 h in the incubator. The absorbance at 450 nm were measured using a microplate reader (Bio-Tek).

[3] = tested on: A549 cells; test: CCK-8 antiproliferation assay, A549; conditions: for Inhibitory efficacy: A549 cells; for IC50: A549, 48 h, read-out: IC50 (μM) A549, CCK-8, 48 h, average ± SD of three independent experiments
[4] = tested on: PC-9 cells; test: CCK-8 antiproliferation assay, PC-9; conditions: for IC50: PC-9, 48 h, read-out: IC50 (μM) PC-9; for inhibition at 4 µM: PC-9, read-out: Inhibitory efficacy, PC-9, 4uM, single repeats (Repeat 1-3), given as fraction; for Inhibitory efficacy: single repeats (Repeat 1-3), given as fraction
[5] = tested on: H1975 cells; test: CCK-8 antiproliferation assay, H1975; conditions: for Inhibitory efficacy: H1975 cells; for IC50: NCI-H1975, 48 h, read-out: IC50 (μM) H1975, CCK-8, 48 h, average ± SD of three independent experiments
[6] = concentration 0.03 nM, one value per replicate column, 3e-05 µM
[7] = concentration 0.3 nM, one value per replicate column
[8] = concentration 0.3 nM, one value per replicate column, 0.0003 µM
[9] = concentration 3 nM, one value per replicate column
[10] = concentration 3 nM, one value per replicate column, 0.003 µM
[11] = concentration 30 nM, one value per replicate column
[12] = concentration 30 nM, one value per replicate column, 0.03 µM
[13] = concentration 300 nM, one value per replicate column
[14] = concentration 300 nM, one value per replicate column, 0.3 µM
[15] = concentration 3000 nM, one value per replicate column
[16] = concentration 3000 nM, one value per replicate column, 3 µM
[17] = concentration 30000 nM, one value per replicate column
[18] = concentration 30000 nM, one value per replicate column, 30 µM
[19] = 2uM, given as fraction, Repeat 1-3
[20] = 8uM, given as fraction, Repeat 1-3
[21] = 16uM, given as fraction, Repeat 1-3
[22] = Homo sapiens, NCI-H460, read-out: Inhibitory efficacy, H460 cells, 2uM, given as fraction, Repeat 1-3
[23] = 1uM, given as fraction, Repeat 1-3
[24] = 4uM, given as fraction, Repeat 1-3
[25] = Homo sapiens, NCI-H1975, read-out: Inhibitory efficacy, H1975 cells, 2uM, given as fraction, Repeat 1-3
[26] = Homo sapiens, NCI-H1975, read-out: Inhibitory efficacy, H1975 cells, 4uM, given as fraction, Repeat 1-3
[27] = Homo sapiens, NCI-H1975, read-out: Inhibitory efficacy, H1975 cells, 8uM, given as fraction, Repeat 1-3
[28] = Homo sapiens, NCI-H1975, read-out: Inhibitory efficacy, H1975 cells, 16uM, given as fraction, Repeat 1-3

Chain of wild-type EGFR (P00533 25-1210): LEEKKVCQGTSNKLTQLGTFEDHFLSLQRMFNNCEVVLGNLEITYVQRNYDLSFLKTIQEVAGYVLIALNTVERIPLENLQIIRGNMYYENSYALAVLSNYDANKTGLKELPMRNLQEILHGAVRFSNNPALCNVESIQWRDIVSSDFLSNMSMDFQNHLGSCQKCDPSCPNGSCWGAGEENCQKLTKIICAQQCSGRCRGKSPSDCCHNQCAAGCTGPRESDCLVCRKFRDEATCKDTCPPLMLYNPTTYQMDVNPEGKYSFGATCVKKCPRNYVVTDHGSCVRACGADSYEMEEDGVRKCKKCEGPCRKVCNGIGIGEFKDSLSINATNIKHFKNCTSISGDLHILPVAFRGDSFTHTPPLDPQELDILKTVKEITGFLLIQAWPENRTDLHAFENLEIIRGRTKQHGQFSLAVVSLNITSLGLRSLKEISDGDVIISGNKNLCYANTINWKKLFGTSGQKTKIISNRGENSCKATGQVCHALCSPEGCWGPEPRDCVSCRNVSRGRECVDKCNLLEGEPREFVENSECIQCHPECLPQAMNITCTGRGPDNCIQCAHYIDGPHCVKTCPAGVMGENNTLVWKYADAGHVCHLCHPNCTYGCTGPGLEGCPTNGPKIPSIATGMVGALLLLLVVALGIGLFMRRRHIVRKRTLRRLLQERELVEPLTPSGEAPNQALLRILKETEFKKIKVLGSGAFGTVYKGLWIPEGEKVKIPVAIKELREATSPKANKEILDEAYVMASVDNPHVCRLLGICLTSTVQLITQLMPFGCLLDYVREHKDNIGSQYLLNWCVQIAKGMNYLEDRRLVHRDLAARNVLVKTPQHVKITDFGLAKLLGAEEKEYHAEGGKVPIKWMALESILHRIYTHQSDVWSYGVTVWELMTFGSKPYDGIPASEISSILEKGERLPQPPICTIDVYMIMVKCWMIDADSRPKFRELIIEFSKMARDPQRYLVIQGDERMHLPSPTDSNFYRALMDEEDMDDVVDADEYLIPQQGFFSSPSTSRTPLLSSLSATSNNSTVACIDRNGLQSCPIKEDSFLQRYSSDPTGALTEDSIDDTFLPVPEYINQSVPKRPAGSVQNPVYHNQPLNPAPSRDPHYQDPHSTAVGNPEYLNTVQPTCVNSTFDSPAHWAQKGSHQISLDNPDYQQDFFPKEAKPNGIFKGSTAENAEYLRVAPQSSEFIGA

melting point: 105 to 108 °C
IC50 [1]: 2.13 µM
inhibition at 30 pM ([1]; concentration 0.03 nM, one value per replicate column): 4.76%
Inhibition [1, 6]: 5.109
inhibition at 0.0003 µM [1, 7]: 11.4%
Inhibition [1, 8]: 10.9489
inhibition at 0.003 µM [1, 9]: 15.7%
Inhibition [1, 10]: 10.9489
inhibition at 0.03 µM [1, 11]: 21.1%
Inhibition [1, 12]: 11.3139
inhibition at 0.3 µM [1, 13]: 36.5%
Inhibition [1, 14]: 39.9635
inhibition at 3 µM [1, 15]: 38.4%
Inhibition [1, 16]: 48.1752
inhibition at 30 µM [1, 17]: 78.1%
Inhibition [1, 18]: 77.5547
A450 ([1]; concentration 0.0001 nM): 0.787 and 0.697
A450 ([1]; concentration 0.03 nM): 0.757 and 0.669
A450 ([1]; concentration 0.3 nM): 0.715 and 0.637
A450 ([1]; concentration 3 nM): 0.688 and 0.637
A450 ([1]; concentration 30 nM): 0.654 and 0.635
A450 ([1]; concentration 300 nM): 0.557 and 0.478
A450 ([1]; concentration 3000 nM): 0.545 and 0.433
A450 ([1]; concentration 30000 nM): 0.295 and 0.272
IC50 ([2]; Homo sapiens): 15 ± 2.1 µM
IC50 ([3]; Homo sapiens): 3.77 ± 0.68 µM
IC50 ([4]; Homo sapiens): > 100 µM
IC50 ([5]; Homo sapiens): 6.36 ± 4.21 µM
SMILES: COCCOc1cc2ncnc(Nc3cccc(-c4cn(-c5ccc(Br)cc5)nn4)c3)c2cc1OCCOC [e10, [6,7-Bis-(2-methoxy-ethoxy)-quinazolin-4-yl]-{3-[1-(4-bromo-phenyl)-1H-[1,2,3]triazol-4-yl]-phenyl}-amine]
Inhibitory efficacy [2, 19]: 0.07707 and 0.09653
Inhibitory efficacy [2, 20]: 0.3228 and 0.2533
Inhibitory efficacy [2, 21]: 0.4853 and 0.4952
inhibition at 2 µM [2, 22]: 6.52%
inhibition at 8 µM ([2]; Homo sapiens, NCI-H460, read-out: Inhibitory efficacy, H460 cells, 8uM, given as fraction, Repeat 1-3): 25.3%
inhibition at 16 µM ([2]; Homo sapiens, NCI-H460, read-out: Inhibitory efficacy, H460 cells, 16uM, given as fraction, Repeat 1-3): 60.6%
Inhibitory efficacy [3, 23]: 0.3506 and 0.4374
Inhibitory efficacy [3, 19]: 0.4836 and 0.5124
Inhibitory efficacy [3, 24]: 0.5136 and 0.5055
Inhibitory efficacy [3, 20]: 0.5695 and 0.5326
Inhibitory efficacy [3, 21]: 0.5501 and 0.5711
inhibition at 1 µM ([3]; Homo sapiens, A549, read-out: Inhibitory efficacy, A549 cells, 1uM, given as fraction, Repeat 1-3): 35.9%
inhibition at 2 µM ([3]; Homo sapiens, A549, read-out: Inhibitory efficacy, A549 cells, 2uM, given as fraction, Repeat 1-3): 51.4%
inhibition at 4 µM ([3]; Homo sapiens, A549, read-out: Inhibitory efficacy, A549 cells, 4uM, given as fraction, Repeat 1-3): 50.2%
inhibition at 8 µM ([3]; Homo sapiens, A549, read-out: Inhibitory efficacy, A549 cells, 8uM, given as fraction, Repeat 1-3): 55.8%
inhibition at 16 µM ([3]; Homo sapiens, A549, read-out: Inhibitory efficacy, A549 cells, 16uM, given as fraction, Repeat 1-3): 59%
inhibition at 4 µM ([4]; Homo sapiens): 11.7%
inhibition at 16 µM ([4]; Homo sapiens, PC-9, read-out: Inhibitory efficacy, PC-9, 16uM, single repeats (Repeat 1-3), given as fraction): 13.3%
Inhibitory efficacy ([4]; PC-9, 4uM, 4 µM): 0.1333 and 0.0912
Inhibitory efficacy ([4]; PC-9, 16uM, 16 µM): 0.1218 and 0.1916
Inhibitory efficacy [5, 23]: 0.3092 and 0.3364
Inhibitory efficacy [5, 19]: 0.3838 and 0.3364
Inhibitory efficacy [5, 24]: 0.4598 and 0.4892
Inhibitory efficacy [5, 20]: 0.5696 and 0.4885
Inhibitory efficacy [5, 21]: 0.5545 and 0.4835
inhibition at 1 µM ([5]; Homo sapiens, NCI-H1975, read-out: Inhibitory efficacy, H1975 cells, 1uM, given as fraction, Repeat 1-3): 39.4%
inhibition at 2 µM [5, 25]: 33.8%
inhibition at 4 µM [5, 26]: 51.4%
inhibition at 8 µM [5, 27]: 54.1%
inhibition at 16 µM [5, 28]: 67.4%

melting point: 89 to 92 °C
IC50 [1]: 1.34 µM
Inhibition [1, 6]: 3.106 and 6.667
inhibition at 0.0003 µM [1, 7]: 14.9%
Inhibition [1, 8]: 12.7273
inhibition at 0.003 µM [1, 9]: 15.5%
Inhibition [1, 10]: 27.2727
inhibition at 0.03 µM [1, 11]: 28%
Inhibition [1, 12]: 34.5455
inhibition at 0.3 µM [1, 13]: 34.2%
Inhibition [1, 14]: 43.6364
inhibition at 3 µM [1, 15]: 43.5%
Inhibition [1, 16]: 45.4545
inhibition at 30 µM [1, 17]: 73.9%
Inhibition [1, 18]: 80.6061
A450 ([1]; concentration 0.0001 nM): 0.408 and 0.407
A450 ([1]; concentration 0.03 nM): 0.403 and 0.396
A450 ([1]; concentration 0.3 nM): 0.384 and 0.386
A450 ([1]; concentration 3 nM): 0.383 and 0.362
A450 ([1]; concentration 30 nM): 0.363 and 0.35
A450 ([1]; concentration 300 nM): 0.353 and 0.335
A450 ([1]; concentration 3000 nM): 0.338 and 0.332
A450 ([1]; concentration 30000 nM): 0.289 and 0.274
IC50 ([2]; Homo sapiens): > 100 µM
IC50 ([3]; Homo sapiens): > 100 µM
IC50 ([4]; Homo sapiens): > 100 µM
IC50 ([5]; Homo sapiens): > 100 µM
SMILES: COCCOc1cc2ncnc(Nc3cccc(-c4cn(Cc5ccccc5)nn4)c3)c2cc1OCCOC [e1, [3-(1-Benzyl-1H-[1,2,3]triazol-4-yl)-phenyl]-[6,7-bis-(2-methoxy-ethoxy)-quinazolin-4-yl]-amine]
Inhibitory efficacy [2, 19]: 0.09593 and 0.09213
inhibition at 2 µM [2, 22]: 11.9%
inhibition at 4 µM ([4]; Homo sapiens): 13.4%
Inhibitory efficacy ([4]; PC-9, 4uM, 4 µM): 0.07898 and 0.104
Inhibitory efficacy [5, 19]: 0.214 and 0.1313
Inhibitory efficacy [5, 24]: 0.2001 and 0.2011
Inhibitory efficacy [5, 20]: 0.2439 and 0.3137
Inhibitory efficacy [5, 21]: 0.3018 and 0.3516
inhibition at 2 µM [5, 25]: 24.3%
inhibition at 4 µM [5, 26]: 28.4%
inhibition at 8 µM [5, 27]: 25.2%
inhibition at 16 µM [5, 28]: 37.9%
